Experimental data taken from ChEMBL document CHEMBL3779796, “One-pot synthesis and antimicrobial evaluation of novel 3-cyanopyridine derivatives of (-)-β-pinene” (2016).
Converted amounts (≈) assume the structure as drawn.

How the values were obtained:
Format in all cases: functional
Staphylococcus aureus = experiment: Antimicrobial activity against Staphylococcus aureus after 24 hrs by serial two-fold microbroth dilution method
Klebsiella pneumoniae = experiment: Antimicrobial activity against Klebsiella pneumoniae after 24 hrs by serial two-fold microbroth dilution method
[1] = test system: Staphylococcus epidermidis; experiment: Antimicrobial activity against Staphylococcus epidermidis after 24 hrs by serial two-fold microbroth dilution method
Klebsiella aerogenes = experiment: Antimicrobial activity against Enterobacter aerogenes after 24 hrs by serial two-fold microbroth dilution method
Candida albicans = experiment: Antimicrobial activity against Candida albicans after 48 hrs by serial two-fold microbroth dilution method

SMILES | MIC (Staphylococcus aureus) | MIC (Klebsiella pneumoniae) | MIC [1] | MIC (Klebsiella aerogenes) | MIC (Candida albicans)
NC[C@H]1O[C@H](O[C@H]2[C@H](O)[C@@H](O[C@H]3O[C@H](CO)[C@@H](O)[C@H](N)[C@H]3O)[C@H](N)C[C@@H]2N)[C@H](O)[C@@H](O)[C@@H]1O [KANAMYCIN] | 2 µg/mL (≈ 4.13 µM) | 2 µg/mL (≈ 4.13 µM) | 3.9 µg/mL (≈ 8.05 µM) | 3.9 µg/mL (≈ 8.05 µM) | 
Cc1ccc(-c2c(C#N)c(N)nc3c2C[C@H]2C[C@@H]3C2(C)C)cc1 | > 125 µg/mL | > 125 µg/mL | > 125 µg/mL | > 125 µg/mL | 125 µg/mL (≈ 412 µM)
CC1(C)[C@H]2Cc3c(nc(N)c(C#N)c3-c3ccccc3Cl)[C@@H]1C2 | 125 µg/mL (≈ 386 µM) | 125 µg/mL (≈ 386 µM) | 125 µg/mL (≈ 386 µM) | 125 µg/mL (≈ 386 µM) | 125 µg/mL (≈ 386 µM)
COc1ccc(-c2c(C#N)c(N)nc3c2C[C@H]2C[C@@H]3C2(C)C)cc1OC | > 125 µg/mL | > 125 µg/mL | 125 µg/mL (≈ 358 µM) | > 125 µg/mL | 62.5 µg/mL (≈ 179 µM)
CC1(C)[C@H]2Cc3c(nc(N)c(C#N)c3-c3ccccc3)[C@@H]1C2 | > 125 µg/mL | > 125 µg/mL | 125 µg/mL (≈ 432 µM) | > 125 µg/mL | 125 µg/mL (≈ 432 µM)
CC1(C)[C@H]2Cc3c(nc(O)c(C#N)c3-c3ccc(F)c(F)c3)[C@@H]1C2 | 31.3 µg/mL (≈ 95.9 µM) | 62.5 µg/mL (≈ 192 µM) | 15.6 µg/mL (≈ 47.8 µM) | 62.5 µg/mL (≈ 192 µM) | 15.6 µg/mL (≈ 47.8 µM)
CC1(C)[C@H]2Cc3c(nc(O)c(C#N)c3-c3ccc(F)cc3)[C@@H]1C2 | 31.3 µg/mL (≈ 102 µM) | 62.5 µg/mL (≈ 203 µM) | 15.6 µg/mL (≈ 50.6 µM) | 62.5 µg/mL (≈ 203 µM) | 31.3 µg/mL (≈ 102 µM)
COc1ccccc1-c1c(C#N)c(N)nc2c1C[C@H]1C[C@@H]2C1(C)C | > 125 µg/mL | > 125 µg/mL | 125 µg/mL (≈ 391 µM) | > 125 µg/mL | 125 µg/mL (≈ 391 µM)
CC1(C)[C@H]2Cc3c(nc(O)c(C#N)c3-c3ccc(Cl)cc3Cl)[C@@H]1C2 | 62.5 µg/mL (≈ 174 µM) | 125 µg/mL (≈ 348 µM) | 31.3 µg/mL (≈ 87.1 µM) | 62.5 µg/mL (≈ 174 µM) | 62.5 µg/mL (≈ 174 µM)
CC1(C)[C@H]2Cc3c(nc(O)c(C#N)c3-c3ccc(Cl)cc3)[C@@H]1C2 | 31.3 µg/mL (≈ 96.4 µM) | 62.5 µg/mL (≈ 192 µM) | 31.3 µg/mL (≈ 96.4 µM) | 62.5 µg/mL (≈ 192 µM) | 31.3 µg/mL (≈ 96.4 µM)
CO[C@H]1/C=C/O[C@@]2(C)Oc3c(C)c(O)c4c(O)c(c(/C=N/N5CCN(C)CC5)c(O)c4c3C2=O)NC(=O)/C(C)=C\C=C\[C@H](C)[C@H](O)[C@@H](C)[C@@H](O)[C@@H](C)[C@H](OC(C)=O)[C@@H]1C [RIFAMPIN] |  |  |  |  | 3.9 µg/mL (≈ 4.74 µM)
COc1cccc(-c2c(C#N)c(O)nc3c2C[C@H]2C[C@@H]3C2(C)C)c1 | 62.5 µg/mL (≈ 195 µM) | 125 µg/mL (≈ 390 µM) | 62.5 µg/mL (≈ 195 µM) | 125 µg/mL (≈ 390 µM) | 125 µg/mL (≈ 390 µM)
Cc1ccc(-c2c(C#N)c(O)nc3c2C[C@H]2C[C@@H]3C2(C)C)cc1 | 125 µg/mL (≈ 411 µM) | > 125 µg/mL | 125 µg/mL (≈ 411 µM) | > 125 µg/mL | 125 µg/mL (≈ 411 µM)
CC1(C)[C@H]2Cc3c(nc(O)c(C#N)c3-c3ccc(Br)cc3)[C@@H]1C2 | 62.5 µg/mL (≈ 169 µM) | 62.5 µg/mL (≈ 169 µM) | 62.5 µg/mL (≈ 169 µM) | 125 µg/mL (≈ 339 µM) | 31.3 µg/mL (≈ 84.8 µM)
CC1(C)[C@H]2Cc3c(nc(N)c(C#N)c3-c3ccc(F)c(F)c3)[C@@H]1C2 | > 125 µg/mL | 125 µg/mL (≈ 384 µM) | 125 µg/mL (≈ 384 µM) | 125 µg/mL (≈ 384 µM) | 31.3 µg/mL (≈ 96.2 µM)
CC1(C)[C@H]2Cc3c(nc(N)c(C#N)c3-c3ccc(Br)cc3)[C@@H]1C2 | 125 µg/mL (≈ 339 µM) | 125 µg/mL (≈ 339 µM) | 125 µg/mL (≈ 339 µM) | 125 µg/mL (≈ 339 µM) | 62.5 µg/mL (≈ 170 µM)
CC1(C)[C@H]2Cc3c(nc(N)c(C#N)c3-c3cccc(Br)c3)[C@@H]1C2 | > 125 µg/mL | 125 µg/mL (≈ 339 µM) | 125 µg/mL (≈ 339 µM) | 125 µg/mL (≈ 339 µM) | 125 µg/mL (≈ 339 µM)
CC1(C)[C@H]2Cc3c(nc(O)c(C#N)c3-c3cccc(O)c3)[C@@H]1C2 | 62.5 µg/mL (≈ 204 µM) | 62.5 µg/mL (≈ 204 µM) | 31.3 µg/mL (≈ 102 µM) | 62.5 µg/mL (≈ 204 µM) | 62.5 µg/mL (≈ 204 µM)
CC1(C)[C@H]2Cc3c(nc(O)c(C#N)c3-c3cccc(Br)c3)[C@@H]1C2 | 62.5 µg/mL (≈ 169 µM) | 62.5 µg/mL (≈ 169 µM) | 31.3 µg/mL (≈ 84.8 µM) | 62.5 µg/mL (≈ 169 µM) | 31.3 µg/mL (≈ 84.8 µM)

Other lines, results leading:

MIC (Staphylococcus aureus) | MIC (Klebsiella pneumoniae) | MIC [1] | MIC (Klebsiella aerogenes) | MIC (Candida albicans) | SMILES
125 µg/mL (≈ 385 µM) | 125 µg/mL (≈ 385 µM) | 125 µg/mL (≈ 385 µM) | 62.5 µg/mL (≈ 192 µM) | 125 µg/mL (≈ 385 µM) | CC1(C)[C@H]2Cc3c(nc(O)c(C#N)c3-c3ccccc3Cl)[C@@H]1C2
125 µg/mL (≈ 390 µM) | 125 µg/mL (≈ 390 µM) | 125 µg/mL (≈ 390 µM) | 125 µg/mL (≈ 390 µM) | 62.5 µg/mL (≈ 195 µM) | COc1ccccc1-c1c(C#N)c(O)nc2c1C[C@H]1C[C@@H]2C1(C)C
> 125 µg/mL | 125 µg/mL (≈ 407 µM) | 125 µg/mL (≈ 407 µM) | 125 µg/mL (≈ 407 µM) | 62.5 µg/mL (≈ 203 µM) | CC1(C)[C@H]2Cc3c(nc(N)c(C#N)c3-c3ccc(F)cc3)[C@@H]1C2
125 µg/mL (≈ 391 µM) | 125 µg/mL (≈ 391 µM) | 125 µg/mL (≈ 391 µM) | 125 µg/mL (≈ 391 µM) | 125 µg/mL (≈ 391 µM) | COc1cccc(-c2c(C#N)c(N)nc3c2C[C@H]2C[C@@H]3C2(C)C)c1
125 µg/mL (≈ 349 µM) | > 125 µg/mL | 125 µg/mL (≈ 349 µM) | 125 µg/mL (≈ 349 µM) | 125 µg/mL (≈ 349 µM) | CC1(C)[C@H]2Cc3c(nc(O)c(C#N)c3-c3ccc(C(F)(F)F)cc3)[C@@H]1C2
125 µg/mL (≈ 430 µM) | > 125 µg/mL | 125 µg/mL (≈ 430 µM) | > 125 µg/mL | 125 µg/mL (≈ 430 µM) | CC1(C)[C@H]2Cc3c(nc(O)c(C#N)c3-c3ccccc3)[C@@H]1C2
125 µg/mL (≈ 386 µM) | 125 µg/mL (≈ 386 µM) | 125 µg/mL (≈ 386 µM) | 125 µg/mL (≈ 386 µM) | 62.5 µg/mL (≈ 193 µM) | CC1(C)[C@H]2Cc3c(nc(N)c(C#N)c3-c3ccc(Cl)cc3)[C@@H]1C2
> 125 µg/mL | > 125 µg/mL | > 125 µg/mL | > 125 µg/mL | > 125 µg/mL | CC1(C)[C@H]2CCC(=O)[C@@H]1C2
> 125 µg/mL | 125 µg/mL (≈ 409 µM) | 125 µg/mL (≈ 409 µM) | 125 µg/mL (≈ 409 µM) | 125 µg/mL (≈ 409 µM) | CC1(C)[C@H]2Cc3c(nc(N)c(C#N)c3-c3cccc(O)c3)[C@@H]1C2
